Here are results for 9 compounds from US5854280A, “Antifungal sordaridin derivatives” (Glaxo Wellcome S.A., priority 1994, dated 1998).

Series [1] can be described thus: acute oral toxicity (LD50). Format: in vivo. The note with it: male mice. The method, then: (§1) The compounds of the invention are essentially non-toxic at therapeutically useful levels. […] The LD50 value for the compound of example 8, in male mice is >1000 mg/kg po.
In another series the test system is C. albicans 4711E. Nature of the series: protection of mice infected with C. albicans. Format: in vivo, male mice infected with C. albicans 4711E. To be noted: 50 mg/kg po.
From the text: The in vivo evaluation of compounds of formula (I) can be carried out at a series of dose levels by administration (e.g. subcutaneously, orally, intraperitoneally or intravenously) to mice or rats inoculated with a strain of Candida albicans. Untreated animals die within 3 to 9 days and the dose level at which the test compound provides 50% protection against the lethal effect of the infection is noted.
as §1

The conditions of series [2]: British Patent 1,162,027 / Japanese application J6 2040292A; cited from earlier work.
The test system of series [3] is battery of fungal organisms. To be noted: tested against a battery of fungal organisms; cited from earlier work.
For a further series, the system named is C. glabrata 2375E. Nature of the series: in vitro antifungal MIC, two-fold serial dilution. Format: cell-based, Candida glabrata. The method, then: (§2) The in vitro evaluation of the anti-fungal activity of compounds of the invention was performed on liquid or solid medium by the anti-fungal two-fold serial dilution technique of determining the minimum inhibitory concentration (MIC) of anti-fungal agent that inhibited development of growth after 24 to 48 hours of incubation at 37° C. In practice, a series of agar plates or broth microdilution panels containing two-fold dilutions of anti-fungal agent tested were inoculated with a standard culture of a clinically relevant pathogen, for example, Candida albicans. The agar plates or broth microdulution panels were then examined for the presence or absence of growth of the fungus and the appropriate MIC values were noted.
(§3) Compounds of formula (I) have been tested for anti fungal activity in a standard in vitro screen and the minimum inhibiting concentration (MIC; μg/ml) determined for each compound against a variety of clinically relevant pathogens.

Another series relates to C. glabrata 2376E. Kind of series: in vitro antifungal MIC, two-fold serial dilution. It counts as cell-based, Candida glabrata. The method, then: as §2, §3
The test system of a further series is C. albicans 4711. Nature of the series: in vitro antifungal MIC, two-fold serial dilution. Format: cell-based, Candida albicans. On the procedure: as §2, §3
In a further series the test system is C. aibicans 2402E. Nature of the series: in vitro antifungal MIC, two-fold serial dilution. Format: cell-based, Candida albicans. The method, then:
as §2, §3

The test system of the next series is C. albicans 2005E. Nature of the series: in vitro antifungal MIC, two-fold serial dilution. It counts as cell-based, Candida albicans. On the procedure:
as §2, §3

A further series deals with C. albicans 1208E. Nature of the series: in vitro antifungal MIC, two-fold serial dilution. Format: cell-based, Candida albicans. On the procedure:
as §2, §3

In another series the test system is C. neoformans 2867E. Nature of the series: in vitro antifungal MIC, two-fold serial dilution. It counts as cell-based, Cryptococcus neoformans. The method, then: as §2, §3
In the next series the test system is C. tropicalis 2808E. Nature of the series: in vitro antifungal MIC, two-fold serial dilution. Format: cell-based, Candida tropicalis. On the procedure: as §2, §3
Series [4] concerns C. psuedotropicalis 2371E. Kind of series: in vitro antifungal MIC, two-fold serial dilution. Format: cell-based, Candida pseudotropicalis. On the procedure: as §2, §3

Structures are written as SMILES. ≈ marks a conversion by molar mass, not a printed value. A value given as a limit tells only on which side of the number the result lay.

As usually defined, the LD50 is the dose at which mortality reaches 50%. A higher LD50 goes with lower toxicity. For `CC(C)C1=CC2CC3(C=O)C4CCC(C)C4CC2(COC2CC4OC(C)(C)OC4C(C)O2)C13C(=O)[O-].[Na+]` [Example 8, [1R-(1α,3aβ,4β,4aβ,7β,7aα,8aβ)]8a-[(2,6-Dideoxy-3,4-O-isopropylidene-β-D-allopyranosyloxy)methyl]-4-formyl-4,4a,5,6,7,7a,8,8a-octahydro-7-methyl-3-(1-methylethyl)-1,4-methano-s-indacene-3a(1H)-carboxylic acid, sodium salt], in series [1], the LD50 was over 1000 mg/kg. Also, the “activity in protecting male mice infected with C. albicans 4711E” value in the series on C. albicans 4711E is reported as “active in protecting male mice”.

Take `C/C=C/C=C\C(=O)O[C@H]1[C@H](O)[C@H](OCC23C[C@@H]4[C@H](C)CC[C@H]4C4(C=O)CC2C=C(C(C)C)C34C(=O)O)O[C@H](C)[C@H]1OC` (some centres unmarked) [zofimarin]: the reported activity result in series [2] is “antifungal activity”. Also, in [3], the antifungal activity result is on record as “only moderately active” and the spectrum of action result is “limited spectra of action”.

With `CC(C)C1=CC2CC3(C=O)C4CCC(C)C4CC2(COC2OC(C)C(OCc4ccccc4)C4OC24)C13C(=O)O` [Example 54, [1R-(1α,3aβ,4β,4aβ,7β,7aα,8aβ)]8a-[(2,3-Anhydro-4-O-benzyl-6-deoxy-β-D-mannopyranosyloxy)methyl]-4-formyl-4,4a,5,6,7,7a,8,8a-octahydro-7-methyl-3-(1-methylethyl)-1,4-methano-s-indacene-3a(1H)-carboxylic acid], the “MIC (minimum inhibiting concentration)” value with C. glabrata 2375E was 8.00 µg/mL (≈ 14.5 µM); against C. glabrata 2376E, 8.00 µg/mL (≈ 14.5 µM); with C. albicans 4711, at most 0.001 µg/mL; with C. aibicans 2402E, at most 0.001 µg/mL; against C. albicans 2005E, at most 0.001 µg/mL; in the series with C. albicans 1208E it was at most 0.001 µg/mL. For the same compound, the “MIC (minimum inhibiting concentration)” value was 2.00 µg/mL (≈ 3.63 µM) against C. neoformans 2867E, at most 0.001 µg/mL in the series on C. tropicalis 2808E and 0.01 µg/mL (≈ 0.0182 µM) in series [4].

Consider `CC(C)C1=CC2CC3(C=O)C4CCC(C)C4CC2(COC2CC4OCC(C)C4C(C)O2)C13C(=O)O` [Example 16, [1R-(1α,3aβ,4β,4aβ,7β,7aα,8aβ)]8a-[[1S,4S,6R,8R]-2,7-Dioxa-4,6-dimethyl-cis-bicyclo[3.4.0]-non-8-yl-oxy-methyl]-4-formyl-4,4a,5,6,7,7a,8,8a-octahydro-7-methyl-3-(1-methylethyl)-1,4-methano-s-indacene-3a(1H)-carboxylic acid], for which the “MIC (minimum inhibiting concentration)” value against C. glabrata 2375E was found to be 8.00 µg/mL (≈ 16.4 µM); against C. glabrata 2376E, 8.00 µg/mL (≈ 16.4 µM); with C. albicans 4711 it was 0.001 µg/mL (≈ 0.00205 µM); with C. aibicans 2402E, 0.001 µg/mL (≈ 0.00205 µM); in the series with C. albicans 2005E, 0.001 µg/mL (≈ 0.00205 µM); with C. albicans 1208E it was 0.001 µg/mL (≈ 0.00205 µM). In addition, the “MIC (minimum inhibiting concentration)” value with C. neoformans 2867E is 1.00 µg/mL (≈ 2.05 µM); in the series on C. tropicalis 2808E, 0.008 µg/mL (≈ 0.0164 µM); in series [4], under 0.001 µg/mL.

Take `CC(C)C(=O)OC1C(C)OC(OCC23CC4C(C)CCC4C4(C=O)CC2C=C(C(C)C)C43C(=O)O)C2OC12` [Example 59, [1R-(1α,3aβ,4β,4aβ,7β,7aα,8aβ)]8a-[(2,3-Anhydro-6-deoxy-4-O-(1-methylethyl)carbonyl-β-D-mannopyranosyloxy)methyl]-4-formyl-4,4a,5,6,7,7a,8,8a-octahydro-7-methyl-3-(1-methylethyl)-1,4-methano-s-indacene-3a(1H)-carboxylic acid]: the “MIC (minimum inhibiting concentration)” value in the series with C. glabrata 2375E is 16.0 µg/mL (≈ 30.2 µM); with C. glabrata 2376E it was 16.0 µg/mL (≈ 30.2 µM); against C. albicans 4711, 0.002 µg/mL (≈ 0.00377 µM); with C. aibicans 2402E, 0.008 µg/mL (≈ 0.0151 µM); with C. albicans 2005E, at most 0.001 µg/mL; against C. albicans 1208E it was 0.015 µg/mL (≈ 0.0283 µM). Besides, the “MIC (minimum inhibiting concentration)” value in the series with C. neoformans 2867E amounted to 1.00 µg/mL (≈ 1.88 µM); with C. tropicalis 2808E it was 0.015 µg/mL (≈ 0.0283 µM); in [4], 0.015 µg/mL (≈ 0.0283 µM).

Consider `CO[C@H]1[C@@H](O)[C@H](O)[C@H](OC[C@@]23C[C@@H]4[C@H](C)CC[C@H]4[C@@]4(C=O)CC2C=C(C(C)C)[C@@]34C(=O)O)O[C@@H]1C` [sordarin], for which, in series [2], the reported activity result was “fungistatic activity”. Besides, in [3], the antifungal activity result is listed as “only moderately active” and the spectrum of action result was “limited spectra of action”.

Regarding `C=C1COC2C(C)OC(OCC34CC5C(C)CCC5C5(C=O)CC3C=C(C(C)C)C54C(=O)[O-])CC12.[Na+]` [Example 34, [1R-(1α,3aβ,4β,4aβ,7β,7aα,8aβ)]8a-[[1S,7R,9R]-2,8-Dioxa-9-methyl-4-methylene-cis-bicyclo[3.4.0]-non-7-yl-oxy-methyl]-4-formyl-4,4a, 5,6,7,7a,8,8a-octahydro-7-methyl-3-(1-methylethyl)-1,4-methano-s-indacene-3a(1H)-carboxylic acid, sodium salt], the “MIC (minimum inhibiting concentration)” value against C. glabrata 2375E was 1.000 µg/mL; in the series on C. glabrata 2376E, 1.000 µg/mL; against C. albicans 4711, 0.001 µg/mL; against C. aibicans 2402E, 0.001 µg/mL; with C. albicans 2005E, 0.001 µg/mL; against C. albicans 1208E it was 0.001 µg/mL. The “MIC (minimum inhibiting concentration)” value is at most 0.250 µg/mL in the series with C. neoformans 2867E, 0.150 µg/mL in the series on C. tropicalis 2808E and at most 0.001 µg/mL in series [4].

For the compound `COC1C(C)OC(OCC23CC4C(C)CCC4C4(C=O)CC2C=C(C(C)C)C43C(=O)O)C2SC12` [Example 51, [1R-(1α,3aβ,4β,4aβ,7β,7aα,8aβ)]8a-[(2,3-Epithio-4-O-methyl-2,3,6-trideoxy-β-D-mannopyranosyloxy)methyl]-4-formyl-4,4a,5,6,7,7a,8,8a-octahydro-7-methyl-3-(1-methylethyl)-1,4-methano-s-indacene-3a(1H)-carboxylic acid], the “MIC (minimum inhibiting concentration)” value with C. glabrata 2375E turned out to be 16.00 µg/mL (≈ 32.6 µM); against C. glabrata 2376E, 16.00 µg/mL (≈ 32.6 µM); with C. albicans 4711 it was 0.120 µg/mL (≈ 0.245 µM); against C. aibicans 2402E, 0.120 µg/mL (≈ 0.245 µM); against C. albicans 2005E it was 0.030 µg/mL (≈ 0.0611 µM); in the series on C. albicans 1208E, 0.120 µg/mL (≈ 0.245 µM). In addition, the “MIC (minimum inhibiting concentration)” value with C. neoformans 2867E was at most 125 µg/mL; in the series on C. tropicalis 2808E, 0.500 µg/mL (≈ 1.02 µM); in [4], 0.008 µg/mL (≈ 0.0163 µM).

As to `C=CCOC1C(C)OC(OCC23CC4C(C)CCC4C4(C=O)CC2C=C(C(C)C)C43C(=O)O)C2OC12` [Example 68, [1R-(1α,3aβ,4β,4aβ,7β,7aβ,8aβ)]8a-[(4-O-Allyl,2,3-anhydro,6deoxy-β-D-mannopyranosyl)oxy-methyl]-4-formyl-4,4a5,6,7,7a8,8a-octahydro-7-methyl-3-(1-methylethyl)-1,4-methano-s-indacene-3a(1H)-carboxylic acid], the “MIC (minimum inhibiting concentration)” value was 31.00 µg/mL (≈ 61.9 µM) in the series on C. glabrata 2375E; 31.00 µg/mL (≈ 61.9 µM) in the series on C. glabrata 2376E; 0.030 µg/mL (≈ 0.0599 µM) against C. albicans 4711; 0.002 µg/mL (≈ 0.00399 µM) with C. aibicans 2402E; 0.060 µg/mL (≈ 0.12 µM) with C. albicans 2005E; 0.060 µg/mL (≈ 0.12 µM) with C. albicans 1208E. In addition, the “MIC (minimum inhibiting concentration)” value against C. neoformans 2867E is 1.00 µg/mL (≈ 2 µM); in the series with C. tropicalis 2808E, 0.250 µg/mL (≈ 0.499 µM); in series [4] it was 0.015 µg/mL (≈ 0.03 µM).
